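Method: 48-hour compound exposure of cells in 96-well plates, five concentrations, linear interpolation of endpoints. TGI: concentration producing complete growth inhibition.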 Where only a bound is given, the exact number is not on record here.

Some test systems named below: COLO 205 colon; DU-145 prostate; HCT-15 colon; HOP-92 NSCLC; HT29 colon; KM12 colon; NCI-H23 lung; NCI-H460 lung; PC-3 prostate; SK-MEL-2 melanoma; SK-MEL-28 melanoma; SK-MEL-5 melanoma; T-47D breast; UACC-257 melanoma.
Assay in all cases: NCI tumour cell line growth inhibition, 48 h

With `O=c1oc2ccc3ccccc3c2cc1-c1cn2ccccc2n1`, the TGI is more than 100 µM in the test with COLO 205 colon; more than 100 µM in the test on DU-145 prostate; more than 100 µM in the test on HCT-15 colon; more than 100 µM in the test with HOP-92 NSCLC; 77.5 µM with HT29 colon; more than 100 µM with KM12 colon. Further, the TGI in the test on NCI-H23 lung, in the test with NCI-H460 lung, with PC-3 prostate, in the test with SK-MEL-2 melanoma, in the test with SK-MEL-28 melanoma and in the test on SK-MEL-5 melanoma was more than 100 µM in each case. Moreover, the TGI with T-47D breast and in the test on UACC-257 melanoma was more than 100 µM throughout.
For `O=S1(=O)N=C(SCc2ccccc2)N(c2ccccc2)c2ccncc21`, the TGI in the test on COLO 205 colon is 38.3 µM; in the test on DU-145 prostate, more than 100 µM; in the test with HCT-15 colon it was more than 100 µM; in the test with HOP-92 NSCLC, 82.7 µM; in the test with HT29 colon, more than 100 µM; with KM12 colon it was more than 100 µM. Also, the TGI with NCI-H23 lung, in the test with NCI-H460 lung, in the test with PC-3 prostate, in the test on SK-MEL-2 melanoma, in the test on SK-MEL-28 melanoma and in the test on SK-MEL-5 melanoma was more than 100 µM throughout. Moreover, the TGI in the test with T-47D breast and in the test with UACC-257 melanoma was more than 100 µM in each case.
For `O=C1CCC2C(O)c3cc4c(cc3C(c3ccc5c(c3)OCO5)N12)OCO4` (stereo unspecified), the TGI in the test with COLO 205 colon was more than 100 µM; with DU-145 prostate, more than 100 µM; in the test on HCT-15 colon it was more than 100 µM; with HOP-92 NSCLC, 66.8 µM; in the test with HT29 colon it was more than 100 µM; in the test with KM12 colon, more than 100 µM. The TGI in the test on NCI-H23 lung, with NCI-H460 lung, with PC-3 prostate, in the test on SK-MEL-2 melanoma, in the test with SK-MEL-28 melanoma and in the test on SK-MEL-5 melanoma was more than 100 µM each time. Moreover, the TGI in the test on T-47D breast and in the test on UACC-257 melanoma was more than 100 µM in each case.
As to `COC1(OC)c2no[n+]([O-])c2CCC1O` (stereo unspecified), the TGI with COLO 205 colon, in the test on DU-145 prostate, in the test on HCT-15 colon, in the test on HOP-92 NSCLC, in the test on HT29 colon and in the test with KM12 colon was more than 100 µM throughout. Further, the TGI in the test with NCI-H23 lung, with NCI-H460 lung, in the test with PC-3 prostate, in the test on SK-MEL-2 melanoma, with SK-MEL-28 melanoma and in the test with SK-MEL-5 melanoma was more than 100 µM in each case. The TGI with T-47D breast and in the test with UACC-257 melanoma was more than 100 µM each time.
`CCOC(CN(C)C(=O)Nc1cccc2ccccc12)OCC`: the TGI in the test on COLO 205 colon, with DU-145 prostate, in the test with HCT-15 colon, with HOP-92 NSCLC, in the test with HT29 colon and in the test with KM12 colon was more than 10 µM in each case. Besides, the TGI with NCI-H23 lung, in the test on NCI-H460 lung, in the test on PC-3 prostate, in the test on SK-MEL-2 melanoma, with SK-MEL-28 melanoma and with SK-MEL-5 melanoma was more than 10 µM in each case. Also, the TGI with T-47D breast and in the test on UACC-257 melanoma was more than 10 µM in each case.
In the case of `Cc1cc2c(cc1-c1cc3c(cc1C)C(C(C)C)=C(O)C(=O)/C3=C\Nc1c3ccccc3nc3ccccc13)/C(=C/Nc1c3ccccc3nc3ccccc13)C(=O)C(O)=C2C(C)C`, the TGI turned out to be 6.72 µM in the test with COLO 205 colon; 20.6 µM in the test on DU-145 prostate; 14.9 µM in the test on HCT-15 colon; 21.5 µM in the test on HOP-92 NSCLC; 5.1 µM with HT29 colon; 14.1 µM in the test on KM12 colon. Besides, the TGI in the test on NCI-H23 lung stood at 15 µM; in the test with NCI-H460 lung, 6.3 µM; in the test on PC-3 prostate, 12.9 µM; with SK-MEL-2 melanoma it was 19.2 µM; with SK-MEL-28 melanoma, 19.5 µM; in the test on SK-MEL-5 melanoma, 15.4 µM. Also, the results for the TGI in the test with T-47D breast and in the test on UACC-257 melanoma were 26.8 µM and 16.6 µM, respectively.
On to `O=C(NC1=NCC(CN2CCN(c3ccccc3)CC2)O1)Nc1ccccc1` (stereo unspecified), for which the TGI in the test with COLO 205 colon, in the test on DU-145 prostate, in the test on HCT-15 colon, in the test on HOP-92 NSCLC, with HT29 colon and in the test on KM12 colon was more than 100 µM throughout. The TGI in the test with NCI-H23 lung, with NCI-H460 lung, with PC-3 prostate, with SK-MEL-2 melanoma, in the test on SK-MEL-28 melanoma and with SK-MEL-5 melanoma was more than 100 µM throughout. Also, the TGI in the test on T-47D breast and in the test on UACC-257 melanoma was more than 100 µM each time.
For `CNC1=C(C)C(=O)C(=O)C([C@H](C)CCC=C(C)C)=C1O`, the TGI with COLO 205 colon was more than 73.7 µM; with DU-145 prostate, more than 100 µM; in the test with HCT-15 colon, more than 100 µM; in the test on HOP-92 NSCLC, more than 100 µM; with HT29 colon it was more than 100 µM; in the test with KM12 colon, more than 100 µM. Besides, the TGI is more than 100 µM with NCI-H23 lung; more than 100 µM in the test on NCI-H460 lung; 98.7 µM with PC-3 prostate; 81.9 µM in the test with SK-MEL-2 melanoma; more than 100 µM with SK-MEL-28 melanoma; 41.4 µM in the test with SK-MEL-5 melanoma. The TGI in the test with T-47D breast is 86.3 µM; with UACC-257 melanoma, more than 100 µM.
`N#Cc1c(N)nc(-c2ccc(Cl)cc2)c2c1-c1ccccc1S(=O)(=O)CC2`: the TGI with COLO 205 colon, with DU-145 prostate, with HCT-15 colon, in the test on HOP-92 NSCLC, in the test on HT29 colon and with KM12 colon was more than 100 µM in each case. The TGI in the test with NCI-H23 lung, in the test on NCI-H460 lung, in the test on PC-3 prostate, with SK-MEL-2 melanoma, in the test on SK-MEL-28 melanoma and with SK-MEL-5 melanoma was more than 100 µM throughout. Moreover, the TGI in the test with T-47D breast and in the test with UACC-257 melanoma was more than 100 µM throughout.
As to `C(=C\c1cccs1)/c1cccc(/C=C/c2cccs2)n1`, the TGI in the test on COLO 205 colon, with DU-145 prostate, with HCT-15 colon, with HOP-92 NSCLC, with HT29 colon and in the test with KM12 colon was more than 100 µM each time. Also, the TGI with NCI-H23 lung, in the test on NCI-H460 lung, in the test with PC-3 prostate, in the test on SK-MEL-2 melanoma, with SK-MEL-28 melanoma and in the test on SK-MEL-5 melanoma was more than 100 µM each time. The TGI in the test with T-47D breast and with UACC-257 melanoma was more than 100 µM in each case.
As for `C=CCOc1cccc(C2(O)c3ccccc3C3=NCCCN32)c1` (stereo unspecified), the TGI with COLO 205 colon was 33.5 µM; in the test on DU-145 prostate, more than 100 µM; in the test on HCT-15 colon, more than 50 µM; with HOP-92 NSCLC it was more than 82.6 µM; with HT29 colon it was 27.2 µM; in the test on KM12 colon, 24.7 µM. Also, the TGI is more than 47.2 µM with NCI-H23 lung; 36.7 µM in the test with NCI-H460 lung; more than 44.4 µM in the test on PC-3 prostate; 17.5 µM with SK-MEL-2 melanoma; 24.7 µM with SK-MEL-28 melanoma; 41.9 µM with SK-MEL-5 melanoma. Besides, the TGI in the test on T-47D breast came out at 45.5 µM; in the test on UACC-257 melanoma it was 33.1 µM.
On to `COC(=O)C1(CCC(C)=O)CCCCCC1=O` (stereo unspecified), for which the TGI in the test with COLO 205 colon, with DU-145 prostate, in the test with HCT-15 colon, in the test with HOP-92 NSCLC, in the test with HT29 colon and in the test on KM12 colon was more than 100 µM throughout. For the same compound, the TGI in the test with NCI-H23 lung, in the test on NCI-H460 lung, with PC-3 prostate, with SK-MEL-2 melanoma, with SK-MEL-28 melanoma and in the test with SK-MEL-5 melanoma was more than 100 µM each time. The TGI in the test on T-47D breast and in the test on UACC-257 melanoma was more than 100 µM throughout.
`O=C1C(Cl)C2(CC(/C=C/c3ccccc3Cl)=NN2c2cccc(S(=O)(=O)O)c2)N1c1nc2ccccc2s1` (stereo unspecified): the TGI is more than 100 µM with COLO 205 colon; 87.5 µM in the test with DU-145 prostate; more than 100 µM in the test on HCT-15 colon; more than 100 µM with HOP-92 NSCLC; more than 100 µM with HT29 colon; more than 100 µM in the test on KM12 colon. In addition, the TGI in the test with NCI-H23 lung, in the test on NCI-H460 lung, with PC-3 prostate, in the test with SK-MEL-2 melanoma, in the test with SK-MEL-28 melanoma and in the test on SK-MEL-5 melanoma was more than 100 µM each time. The TGI in the test on T-47D breast and in the test with UACC-257 melanoma was more than 100 µM in each case.
Take `O=C1CCCCC/C1=C\c1cccc(Cl)c1`: the TGI with COLO 205 colon, in the test with DU-145 prostate, with HCT-15 colon, in the test with HOP-92 NSCLC, in the test on HT29 colon and with KM12 colon was more than 100 µM in each case. Further, the TGI in the test on NCI-H23 lung is more than 100 µM; in the test on NCI-H460 lung, 87.7 µM; in the test with PC-3 prostate, 80.4 µM; with SK-MEL-2 melanoma, more than 100 µM; in the test on SK-MEL-28 melanoma, more than 100 µM; in the test on SK-MEL-5 melanoma, more than 100 µM. Besides, the TGI with T-47D breast and in the test with UACC-257 melanoma was more than 100 µM throughout.

These data come from PubChem BioAssay (NCI).
